Test results reported in ChEMBL document CHEMBL4622910, “Design, synthesis and evaluation of pyrazolopyrimidinone derivatives as novel PDE9A inhibitors for treatment of Alzheimer's disease” (Bioorg Med Chem Lett, 2020).
Converted amounts (≈) assume the structure as drawn.

Key:
[1] = Solubility of the compound in water; format: physicochemical
[2] = Half life in rat liver microsomes; format: ADME, Microsome
[3] = Hepatic clearance in rat liver microsomes; format: ADME, Microsome
[4] = Metabolic stability in rat liver microsomes; format: ADME, Microsome
[5] = species on record: Homo sapiens; experiment: Selectivity for PDE1 (unknown origin) over PDE9 (unknown origin)
[6] = species on record: Homo sapiens; experiment: Selectivity for PDE5 (unknown origin) over PDE9 (unknown origin)

solubility [1] [µg/mL] | t1/2 [2] [min] | CLH [3] [mL/min/kg] | Structure (SMILES) | also measured
0.04 (≈ 0.101 µM) | 23.3 | 65.8 | COc1ccc(NC(=O)[C@@H](C)Nc2nc3c(cnn3C3CCCC3)c(=O)[nH]2)cc1 | 
52 (≈ 135 µM) | 32.8 | 11.8 | C[C@@H](Nc1nc2c(cnn2C2CCCC2)c(=O)[nH]1)C(=O)Nc1ccc(F)nc1 | Stability [4]: 41%
0.1 (≈ 0.247 µM) |  |  | C[C@@H](Nc1nc2c(cnn2C2CCCC2)c(=O)[nH]1)C(=O)Nc1ccc2[nH]ccc2c1 | 
0.5 (≈ 1.24 µM) |  |  | C[C@@H](Nc1nc2c(cnn2C2CCCC2)c(=O)[nH]1)C(=O)Nc1cnc(Cl)nc1 | 
74 (≈ 182 µM) | 32.6 | 11.8 | C[C@@H](Nc1nc2c(cnn2C2CCCC2)c(=O)[nH]1)C(=O)Nc1ccc2nccn2c1 | Stability [4]: 40.8%
20 (≈ 54.4 µM) |  |  | C[C@@H](Nc1nc2c(cnn2C2CCCC2)c(=O)[nH]1)C(=O)Nc1ccncc1 | 

Second part, the molecule before the results:

Structure (SMILES) | solubility [1] [µg/mL] | t1/2 [2] [min] | CLH [3] [mL/min/kg] | also measured
C[C@@H](Nc1nc2c(cnn2C2CCCC2)c(=O)[nH]1)C(=O)Nc1ccc(C(F)(F)F)cn1 | 6.3 (≈ 14.5 µM) |  |  | 
C[C@@H](Nc1nc2c(cnn2C2CCCC2)c(=O)[nH]1)C(=O)Nc1ccc2[nH]ncc2c1 | 103 (≈ 253 µM) | 43.4 | 10 | Stability [4]: 47.8%
C[C@@H](Nc1nc2c(cnn2C2CCCC2)c(=O)[nH]1)C(=O)Nc1ccc2c(c1)CCC2=O | 6 (≈ 14.3 µM) |  |  | 
C[C@@H](Nc1nc2c(cnn2C2CCCC2)c(=O)[nH]1)C(=O)Nc1ccc(C(F)(F)F)nc1 | 5.1 (≈ 11.7 µM) |  |  | 
C[C@@H](Nc1nc2c(cnn2C2CCCC2)c(=O)[nH]1)C(=O)Nc1ccc2c(c1)COC2 | 0.03 (≈ 0.0734 µM) |  |  | 
C[C@@H](Nc1nc2c(cnn2C2CCCC2)c(=O)[nH]1)C(=O)Nc1ccc2c(c1)CNC2=O | 0.1 (≈ 0.237 µM) |  |  | 
C[C@@H](Nc1nc2c(cnn2C2CCCC2)c(=O)[nH]1)C(=O)Nc1nccs1 | 25 (≈ 66.9 µM) |  |  | 
C[C@@H](Nc1nc2c(cnn2C2CCCC2)c(=O)[nH]1)C(=O)NC1=NCCS1 | 0.03 (≈ 0.0799 µM) |  |  | 
C[C@@H](Nc1nc2c(cnn2C2CCCC2)c(=O)[nH]1)C(=O)Nc1ccc2[nH]cnc2c1 | 195 (≈ 480 µM) | 57 | 9.07 | Stability [4]: 54.7%
CC(Nc1nc2c(cnn2C2CCCC2)c(=O)[nH]1)c1ccc(Cl)cc1 (stereo unspecified) |  |  |  | Selectivity ratio [5]: 46; Selectivity ratio [6]: 31
